In patent US20220242905A1, “MODIFIED PEPTIDES AND THEIR USE” (UNIVERSITE DE MONTPELLIER, priority 2018, published 2022):
≈ marks a conversion by molar mass, not a printed value.

What was measured:
Format in all cases: cell-based
[1] = tested on: Human red blood cells (hRBCs); experiment: Hemolytic activity; conditions: 1 h at 37° C., printed in the HD50 column
Method: Procedure for measurements of hemolytic activity: Human red blood cells (hRBCs) were washed multiple times with phosphate-buffered saline (PBS) until a clear supernatant was obtained. The hRBCs suspension was made in PBS with a Packed Cell Volume of 5%, Two-fold serial dilutions (50 μL) of oligomers in sterile water (pH adjusted between 7.4 and 7.7 with HCl and NaOH solutions) were mixed with hRBCs suspension (50 μL) in clear polystyrene optical-bottom 96-well plates which were filmed and incubated for 1 h at 37° C. A 1/1 vv hRBCs solution/PBS mixture was used a negative control and a 1/1 vv hRBCs solution/1% (TRIS 50 mM pH=8.0+1% SDS) mixture was used a positive control for 100% hemolysis. The mixture was then centrifuged at 1500 g for 10 min at 5° C. Next, 50 μL of the supernatant was transferred into a second plate, and the absorbance was read at 490 nm using a BioRad iMark plate reader. The hemolysis percentage was calculated by the formula % hemolysis=[Absorbance (sample)−Absorbance (negative control)]/[Absorbance (positive control)−Absorbance (negative control)]×100%. Each assay was performed in a double duplicate. Hemolytic activity was determined or estimated with the Hemolytic Concentration leading to 50% of lysis of hRBCs (HC50).

[2] = tested on: Escherichia coli ATCC8739; conditions: ATCC8739, 24 h
Method: (§1) Minimal inhibitory concentration (MIC) values and minimal bactericidal concentration (MBCs) values for ATC-peptides 1-9 were determined against both Gram-positive (Bacillus subtilis, Staphylococcus aureus, Enterococcus faecalis) and Gram negative (Escherichia coli, Pseudomonas aeruginosa) bacteria as well as a yeast (Candida albicans). Experiments were conducted in triplicate. For B. subtilis, compounds were tested against vegetative cells and spores, which are particularly resistant to the action of antimicrobial agents. MIC and MBCs values are shown Table 12. In addition, haemolytic properties of 1-9 were tested.
(§2) the antimicrobial performances of oligomers antimicrobial activity were determined on three Gram positive strains (Bacillus subtilis ATCC6633, Staphylococcus aureus ATCC6538 and Enterococcus faecalis ATCC29121), two Gram negative strains (Escherichia coli ATCC8739 and Pseudomonas aeruginosa ATCC9027) and one fungal strain (Candida albicans ATCC10231). Each bacterial strain was allowed to grow overnight on Trypto-Caseine-Soja agar (TSA, Difco) at 37° C., C. albicans was allowed to grow 48 h on a sabouraud medium (Difco) at 20-25° C. A fresh suspension at 10^8 CFU·mL^−1 was then prepared by inoculating the micro-organisms in a Tryptone-Sel solution. Concentration was monitored by measuring transmitted light at 620 nm or with the Mac Farland turbidity standard (Mac Farland=0.5≈10^8 CFU·mL^−1). Each suspension was then diluted in a doubly strong Mueller-Hinton (MH, Difco) broth to […]. Two-fold serial dilutions (100 μL) of oligomers in sterile water (pH adjusted between 7.4 and 7.7 with HCl and NaOH solutions) were mixed with microbial inoculum (100 μL) in NUNC sterile clear polystyrene flat-bottom 96-well plates. A 1/1 v/v oligomer solution/water mixture was used a negative control and a 1/1 vv water/microbial inoculum mixture was used a positive control. Plates were then incubated 24 h at 37° C. for bacteria and 48 h at 25° C. for C. albicans. Minimum Inhibitory Concentration (MIC) was determined as the lowest concentration inhibiting the growth of each micro-organism. […] Minimum Bactericidal Concentration (MBC) was determined as the lowest concentration that prevent the growth of more than one colony. Each assay was performed in a triple duplicate for each strain.

[3] = tested on: Staphylococcus aureus ATCC6538; conditions: ATCC6538, 24 h
Method: as §1, §2

[4] = tested on: Enterococcus faecalis ATCC29121; conditions: ATCC29121, 24 h
Method: as §1, §2

[5] = tested on: Bacillus subtilis ATCC6633; conditions: ATCC6633, 24 h
Method: as §1, §2

[6] = tested on: Candida albicans ATCC10231; conditions: ATCC10231, 48 h
Method: as §1, §2

[7] = tested on: Pseudomonas aeruginosa ATCC9027; conditions: ATCC9027, 24 h
Method: as §1, §2

Minimal inhibitory concentration (MIC) E. coli ATCC8739 [2]: 5.2 µM (≈ 13.2 µg/mL) | Minimal inhibitory concentration (MIC) S. aureus ATCC6538 [3]: 100 µM (≈ 253 µg/mL) | Minimal inhibitory concentration (MIC) E. faecalis ATCC29121 [4]: >150 µM | Minimal inhibitory concentration (MIC) B. subtilis ATCC6633 [5]: 0.8 µM (≈ 2.03 µg/mL) | Minimal inhibitory concentration (MIC) C. albicans ATCC10231 [6]: 50 µM (≈ 127 µg/mL) | Minimal inhibitory concentration (MIC) P. aeruginosa ATCC9027 [7]: 100 µM (≈ 253 µg/mL)
SMILES: CC(=O)N[C@@H](CCCCN)c1nc(C)sc1C(=O)N[C@@H](C)c1nc(C)sc1C(=O)N[C@@H](C)c1nc(CCCCN)sc1C(=O)N[C@@H](C)c1nc(C)sc1C(=O)N[C@@H](C)c1nc(CCCCN)sc1C(=O)N[C@@H](CCCCN)c1nc(C)sc1C(=O)N[C@@H](C)c1nc(CCCCN)sc1C(=O)N[C@@H](CCCCN)c1nc(C)sc1C(=O)N[C@@H](C)c1nc(C)sc1C(=O)N[C@@H](C)c1nc(C)sc1C(=O)N[C@@H](C)c1nc(CCCCN)sc1C(=O)N[C@@H](CCCCN)c1nc(C)sc1C(N)=O [Oligomer 5]
HD10 [1]: 62.5 µM
